“Also recorded” adds a separate entry of the source. Like-named read-outs stand apart in the source and are kept apart here.
Legend:
[1] = test system: Mytilus galloprovincialis plantigrades; assay: Anti-settlement bioassay with mussel plantigrades (effectiveness and mortality); format: in vivo; conditions: for Anti-settlement activity in screening (result in words): 250 and 50 μM, p < 0.05 Dunnett; for Anti-settlement activity in screening (result in words) / Concentration range with significant anti-settlement activity: versus negative control; for EC50 / EC50, minimum concentration that inhibited 50% of larval settlement: plantigrades, 18 °C; for EC50: read-out: EC50, minimum concentration that inhibited 50% of larval settlement; for Concentration range with significant anti-settlement activity: concentration-response 1.56–500 μM
Method: (§1) M. galloprovincialis juvenile (0.5 cm shell length approximately) aggregates were collected from mussel beds from the intertidal rocky shore, during low neap tides at Memória beach, Matosinhos, Portugal (41°13′59″N; 8°43′28″W), and immediately transported to the laboratory. M. galloprovincialis plantigrade post-larvae (0.5–2 mm) were screened among the small mussel aggregates in a binocular magnifier (Olympus SZX2-ILLT), gently washed with filtered seawater to remove organic debris and sand particles and isolated in a petri dish with filtered seawater immediately before the bioassays.
(§2) For the screening bioassay, competent M. galloprovincialis plantigrades (showing exploring behavior, ie, moving their foot searching for the appropriate substrate to settle) were selected and exposed to the series of sulfated compounds 1–13 at two concentrations (250 and 50 μM) in 24-well microplates for 15 h, at 18 ± 1 °C, in the darkness. Bioassays time frame was selected based on preliminary bioassays to ensure that the response measured is reflecting the compounds effect. Test solutions were prepared in filtered seawater (previously treated by UV light, and carbon filters and mechanically filtered with […] filter before use) and obtained by dilution of the compounds stock solutions (50 mM) in ultra-pure water. Four well replicates were used per condition with five plantigrades per well and 2.5 mL of test solution. A negative control, with ultra-pure water was included in all bioassays, as well as a positive control with 5 μM CuSO4 (a potent AF agent). At the end of the exposure period, the anti-settlement activity was determined by the presence/absence of byssal threads produced by each individual efficiently attached for all the conditions tested.
(§3) Data from the anti-settlement and antibacterial screenings were analyzed using a one-way analysis of variance (ANOVA) followed by a Dunnett test against the control (p < 0.05). Semi-maximum response concentration that inhibited 50% larval settlement (EC50), semi-maximum response concentration that inhibited 20% bacterial growth (EC20) and the median lethal dose (LC50) for each bioactive compound were assessed using Probit regression analysis. Pearson Goodness-of-fit (Chi-Square) significance was considered at p < 0.05 for all analyses, and 95% lower and upper confidence limits [95% LCL; UCL] were presented. Therapeutic ratio (LC50/EC50) was used to evaluate the effectiveness vs toxicity of compounds[31][53][54]. The software IBM SPSS Statistics 21 was used for statistical analysis.

[2] = as above; format: in vivo, Mytilus galloprovincialis; conditions: Mytilus galloprovincialis, in vivo, other: immersion in test solution in filtered seawater; mortality of plantigrades, 15 h, up to 500 μM; read-out: LC50, the median lethal dose
Method: as §1, §2, §3

[3] = Seawater stability under AF assay conditions (HPLC-DAD); format: physicochemical; conditions: 250 μM in filtered seawater, 15 h, 18 °C
Method: High performance liquid chromatography with Diode-Array Detection (HPLC-DAD) analyses were carried out on a System SMI Pump Series II (Gloucester, UK) equipped with a Rheodyne 7125 injector fitted with a 20 μL loop, a TSP-UV6000LP detector, and a Chromquest for Windows NT integrator and using a C-18 Nucleosil column (5 μm, 250 × 4.6 mm I.D.), from Macherey-Nagel (Düren, Germany); acetonitrile was of HPLC grade from Merck. HPLC ultrapure water was generated by a Milli-Q system (Millipore, Bedford, MA, USA). The mobile phase used was water with tetrabutylammonium bromide (TBAB, 25 mM) and acetonitrile (38:62) at a constant flow rate of 1.0 mL.min^−1. The mobile phase was filtered ([…]) and degassed for 15 min in an ultrasonic bath before use.
The seawater stability of the three most promising compounds 2, 6, and 12 in the time period (15 h) and temperature (18 °C) of the AF assay was evaluated by HPLC-DAD. Compounds were analyzed at 250 μM (final concentration) in filtered seawater ([…]). Incubations were performed in glass HPLC vials and three independent samples plus respective blank (filtered seawater) and controls (time zero - freshly prepared solutions of compounds) were analyzed.

[4] = biological target: T1, Electrophorus electric acetylcholinesterase Type V-S (Electrophorus electricus, UniProt O42275); assay: In vitro acetylcholinesterase activity (Ellman); format: biochemical; conditions: 50 μM compound
T1 construct: purchased SIGMA C2888
T1 sequence (O42275 24-633): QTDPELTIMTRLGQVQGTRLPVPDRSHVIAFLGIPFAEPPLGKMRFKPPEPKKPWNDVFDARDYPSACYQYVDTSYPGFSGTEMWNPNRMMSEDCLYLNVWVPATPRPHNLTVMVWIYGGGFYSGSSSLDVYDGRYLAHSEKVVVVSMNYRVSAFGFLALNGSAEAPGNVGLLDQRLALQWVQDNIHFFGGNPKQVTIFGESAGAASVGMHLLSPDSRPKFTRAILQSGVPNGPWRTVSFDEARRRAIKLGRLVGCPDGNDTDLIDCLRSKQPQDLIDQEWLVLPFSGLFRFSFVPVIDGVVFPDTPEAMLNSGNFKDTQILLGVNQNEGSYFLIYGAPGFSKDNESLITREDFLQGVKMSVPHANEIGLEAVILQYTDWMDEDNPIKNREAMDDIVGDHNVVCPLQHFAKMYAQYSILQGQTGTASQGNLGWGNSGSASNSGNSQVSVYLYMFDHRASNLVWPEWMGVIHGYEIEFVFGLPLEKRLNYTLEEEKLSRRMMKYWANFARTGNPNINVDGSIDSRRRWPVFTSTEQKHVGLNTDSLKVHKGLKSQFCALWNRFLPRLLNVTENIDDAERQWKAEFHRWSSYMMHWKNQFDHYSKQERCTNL
Method: The potential of compounds 2, 6 and 12 to inhibit acetylcholinesterases activity was evaluated using Electrophorus electric acetylcholinesterase Type V-S (SIGMA C2888, E.C. 3.1.1.7), according to Ellman et al.[47] with some modifications. Briefly, reaction solution containing phosphate buffer 1 M pH 7.2, dithiobisnitrobenzoate (DTNB) 10 mM (acid dithiobisnitrobenzoate and sodium hydrogen carbonate in phosphate buffer) and […] 0.075 M was added to pure acetylcholinesterase enzyme (0.25 U/mL) and each test sulfated compound (final concentration of 50 μM) in quadruplicate. The optical density was measured at 412 nm in a microplate reader during 5 min at 25 °C. A negative control (B) with ultra-pure water and a positive control (C+) with 20 mM eserine also included.

[5] = test system: Agaricus bisporus tyrosinase; assay: In vitro tyrosinase inhibition assay; format: biochemical; conditions: 50 μM compound
Method: Tyrosinase inhibition assays were conducted using Agaricus bisporus tyrosinase (EC 1.14.18.1) according to Adhikari et al.[50] with slight modifications. The enzymatic reaction follows the catalytic conversion of L-Dopa to dopaquinone and the formation of dopachrome by measuring the absorvance at 475 nm. Briefly, tyrosinase (25 U/mL) is added to 50 mM fosfate buffer pH 6.5 and the sulfated compound at 50 μM. The enzymatic activity was triggered by the addition of L-dopa (25 mM). Kojic acid was included as positive control and ultra-pure water as negative control.

Artemia salina nauplii = Artemia salina nauplii lethality (ecotoxicity) test; format: in vivo; conditions: for Mortality of Artemia salina: 250 μM; for Mortality of A. salina nauplii / Toxicity to A. salina: 25, 50, and 250 μM, 48 h; for Toxicity to A. salina: versus negative control
Method: Selected sulfated compounds with AF potential 2, 6, and 12 were tested for general toxicity to nontarget species using the brine shrimp (Artemia salina) nauplii lethality test[51]. Briefly, A. salina eggs were allowed to hatch in nutrient–enriched seawater as nauplii for approximately 48 h at 25 °C. Toxicity tests were performed in the darkness in 96-wells microplates with eight replicates per condition and 15–20 nauplii per well. Serial diluted test solutions of the most promising sulfated AF compounds (25, 50, and 250 μM) were prepared in filtered seawater. K2Cr2O7 (13.6 μM) was included as positive control and ultra-pure water as negative control. Percentage of mortality was determined at 48 h of exposure.

[6] = Luminescent Vibrio fischeri ecotoxicity assay (ISO11348); format: cell-based; conditions: Vibrio fischeri; read-out: LC50 Vibrio fischeri
Method: (§4) After 5, 15 and 30 min of exposure, the light emitted as a by-product of Vibrio fischeri cellular respiration was measured at 490 nm. Any inhibition of cellular activity results in a decreased rate of respiration and a corresponding decrease in the rate of luminescence. The decrease of bacterial luminescence measured after 5, 15 or 30 min of exposition was used as test endpoint. Luminescence was measured using a LUMIStox photometer from DR LANGE, after a contact time of 15 min and 30 min at 15 ± 1 °C, taking into account a correction factor, fk, which is a measure of intensity change of control samples during the exposure time.
(§5) The pH of all samples was within the interval 6.0–8.5.

[7] = test system: Vibrio fischeri (NRRL-B-11177); assay: as above; format: cell-based; conditions: for Inhibition of light radiation emitted by V. fischeri: 15 min or 30 min contact, up to 1000 mg/L; for EC50: Aliivibrio fischeri
Method: as §4, §5

[8] = Water solubility (statement in discussion); format: physicochemical
[9] = Mytilus galloprovincialis, 15 h, 15 h, 1.56–500 μM
[10] = Mytilus galloprovincialis, 15 h, 15 h
[11] = NRRLB11177, 0.25 h, V. fischeri luminescence, 15 min contact, read-out: EC50 15min
[12] = NRRLB11177, 0.5 h, V. fischeri luminescence, 30 min contact, read-out: EC50 30min
[13] = V. fischeri luminescence, 30 min contact

## C[C@@H]1O[C@@H](OC[C@H]2O[C@@H](Oc3c(-c4ccc(O)c(O)c4)oc4cc(O)cc(O)c4c3=O)[C@H](O)[C@@H](O)[C@@H]2O)[C@H](O)[C@H](O)[C@H]1O [Compound 14, rutin, reference compound]
[1]; 15 h
  Anti-settlement activity in screening (result in words): did not show significant anti-settlement activity; also recorded: not active

## O=c1c2ccc(O[C@@H]3O[C@H](COS(=O)(=O)O)[C@@H](OS(=O)(=O)O)[C@H](OS(=O)(=O)O)[C@H]3OS(=O)(=O)O)cc2oc2cc(O[C@@H]3O[C@H](COS(=O)(=O)O)[C@@H](OS(=O)(=O)O)[C@H](OS(=O)(=O)O)[C@H]3OS(=O)(=O)O)ccc12 [Compound 6]
[2]
  LC50 at 15 h: > 500 µM
[1]; 15 h
  Anti-settlement activity in screening (result in words): significant anti-settlement responses at 50 μM; also recorded: highly active
[1]; [9]
  EC50: 23.2 µM
[1]; [10]
  EC50: 31.7 µg/mL
[1]
  Concentration range with significant anti-settlement activity: 25 to 500 µM
[3]
  Concentration detected relative to the initial one (seawater stability): at least 95%
[4]
  Acetylcholinesterase activity inhibition: not inhibited
[5]
  Tyrosinase activity inhibition: not inhibited
Artemia salina nauplii
  Mortality of Artemia salina: < 10%
  Mortality of A. salina nauplii: less than 10%
  Toxicity to A. salina: no toxicity
[6]
  CC50: > 1000 µg/mL
[7]
  Inhibition of light radiation emitted by V. fischeri: no inhibition of light radiation emitted was found; also recorded: lack of light radiation inhibition
[7]; [11]
  EC50: > 1000 µg/mL
[7]; [12]
  EC50: > 1000 µg/mL
[8]
  Water solubility: highly water soluble

## O=C(O)c1cc(O)c(O)c(O)c1 [Compound 15, gallic acid, reference compound]
[1]; 15 h
  Anti-settlement activity in screening (result in words): did not show significant anti-settlement activity; also recorded: not active

## O=C(/C=C/c1ccc(OS(=O)(=O)O)c(OS(=O)(=O)O)c1)O[C@@H]1C[C@](OS(=O)(=O)O)(C(=O)O)C[C@@H](OS(=O)(=O)O)[C@H]1OS(=O)(=O)O [Compound 13, chlorogenic acid persulfate]
[1]; 15 h
  Anti-settlement activity in screening (result in words): much less potent than compound 12

## N#Cc1c(-c2ccc(Cl)cc2)[nH]c(C(F)(F)F)c1Br [ECONEA®]
[1]; all tested concentrations up to 500 μM
  Mortality/toxicity to target species plantigrades: showed some toxicity at the higher concentrations tested
[1]; mortality of plantigrades, 15 h, up to 500 μM, read-out: LC50, the median lethal dose
  LC50: 108 µM
[1]; 15 h
  EC50, minimum concentration that inhibited 50% of larval settlement: 1.40 µg/mL
[1]; 15 h, 1.56–500 μM
  EC50: 4.01 µM

## C[C@@H]1O[C@@H](OC[C@H]2O[C@@H](Oc3c(-c4ccc(OCCOS(=O)(=O)O)c(OCCOS(=O)(=O)O)c4)oc4cc(OCCOS(=O)(=O)O)cc(O)c4c3=O)[C@H](OS(=O)(=O)O)[C@@H](OS(=O)(=O)O)[C@@H]2OS(=O)(=O)O)[C@H](OS(=O)(=O)O)[C@H](OS(=O)(=O)O)[C@H]1OS(=O)(=O)O [Compound 3, 3″,4″-bis(2-sulfateethoxy)-7-(2-sulfateethoxy)-rutin 2″,2″′,3′,3″′,4′,4″′,7-sulfate]
[1]; 15 h
  Anti-settlement activity in screening (result in words): did not show notable activity

## [K+].[K+].[O]=[Cr](=[O])([O-])[O][Cr](=[O])(=[O])[O-] [K2Cr2O7, Potassium dichromate, reference compound]
[7]; [13]
  EC50 30min: 5.67 µg/mL
  EC80 30min: 16.73 µg/mL

## O=c1c2ccc(OCc3cn([C@@H]4O[C@H](COS(=O)(=O)O)[C@H](OS(=O)(=O)O)[C@H](OS(=O)(=O)O)[C@H]4OS(=O)(=O)O)nn3)cc2oc2cc(OCc3cn([C@@H]4O[C@H](COS(=O)(=O)O)[C@H](OS(=O)(=O)O)[C@H](OS(=O)(=O)O)[C@H]4OS(=O)(=O)O)nn3)ccc12 [Compound 7, 3,6-bis(1-(1-(β-D-galatopyranosyl)-1H-1,2,3-triazole-4-yl)methoxy)xanthone persulfate]
[1]; 15 h
  Anti-settlement activity in screening (result in words): not active

## O=C(O)c1cc(OS(=O)(=O)O)c(OS(=O)(=O)O)c(OS(=O)(=O)O)c1 [Compound 12, gallic acid persulfate]
[2]
  LC50 at 15 h: > 500 µM
[1]; 15 h
  Anti-settlement activity in screening (result in words): significant anti-settlement responses at 50 μM
  EC50, minimum concentration that inhibited 50% of larval settlement: 8.4 µg/mL
[1]; [9]
  EC50: 17.7 µM
[1]; [10]
  EC50: 8.95 µg/mL
[1]
  Concentration range with significant anti-settlement activity: 12.5 to 500 µM
[3]
  Concentration detected relative to the initial one (seawater stability): at least 95%
[4]
  Acetylcholinesterase activity inhibition: not inhibited
[5]
  Tyrosinase activity inhibition: not inhibited
Artemia salina nauplii
  Mortality of Artemia salina: < 10%
  Mortality of A. salina nauplii: less than 10%
  Toxicity to A. salina: no toxicity
[6]
  CC50: > 1000 µg/mL
[7]
  Inhibition of light radiation emitted by V. fischeri: no inhibition of light radiation emitted was found; also recorded: lack of light radiation inhibition
[7]; [11]
  EC50: > 1000 µg/mL
[7]; [12]
  EC50: > 1000 µg/mL
[8]
  Water solubility: highly water soluble

From paper PMC5304334, “Antifouling potential of Nature-inspired sulfated compounds” (Scientific Reports, 2017)
